Assays:
[1] = tested on: TrkA; test: Co-immunoprecipitation of HA-Karet constructs with TrkA; assay type: binding; conditions: co-transfected Hek or NNR5 cells, anti-HA IP
Experimental: (§1) FIG. 3c is a co-immunoprecipitation assay depicting co-immunoprecipitation of HA-Karet with TrkA in COS cells. Karet tagged with the HA epitope was immunoprecipitated with anti-HA antibody and the blot was incubated with anti-TrkA (RTA). In control experiments the HA-Karet was substituted with vector.
(§2) FIG. 3d is a co-immunoprecipitation assay depicting interaction of Karet and TrkA in NNR5 cells transfected with TrkA.
(§3) FIG. 3e is a co-immunoprecipitation assay depicting co-immunoprecipitation of HA-Karet with TricA in co-transfected NNR5 cells immunoprecipitated with anti-HA (Roche) and Western blot with the anti-TrkA antibody C14 (Santa Cruz).
(§4) FIGS. 4a-c are co-immunoprecipitation assay results depicting the influence of NGF treatment on TrkA-Karet interaction. FIG. 4a depicts that TrkA-Karet interaction occurred prior to NGF treatment and was enhanced after ligand stimulation for 10 minutes (10 m) or 2 hours (2 h). HA-Karet was electroporated into cell line PC12, and the cells were treated with 50 ng/ml NGF for the indicated time periods in order to activate p75 and TrkA. Karet tagged with the HA epitope was immunoprecipitated with anti-HA antibody, the precipitated proteins were separated electrophoretically, and gel blots were incubated with anti-TrkA antibody (RTA). FIG. 4b depicts that necdin seems to compete with TrkA for binding to Karet. myc-Karet was electroporated into necdin stable cell line, and the cells were treated with 50 ng/ml NGF for the indicated time periods. Karet tagged with the myc epitope was immunoprecipitated with anti-myc antibody, the precipitated proteins were separated electrophoretically, and gel blots were incubated with anti-TrkA antibody (RTA). […] A blot from the same experiment was stripped and re-incubated with anti-necdin antibody. The arrow indicates the glycosylated form of TrkA (molecular weight of 140 kDa).
(§5) FIG. 7b is an immunoprecipitation assay depicting that the PTB domain-containing Karet(1-228) mutant, but not Karet(228-453) co-immunoprecipitates with TrkA in NNR5 cells. Truncation mutants tagged with the HA epitope were immunoprecipitated with anti-HA antibody, the precipitated proteins were separated electrophoretically, and gel blots were incubated with anti-TrkA (RTA).
(§6) FIGS. 24a-d depict co IP of Ha Karet with TrkA, TrkB, TrkC, p75 from co-transfected Hek cells. Cells were co-transfected with Ha Karet or control vector and TrkA, TrkB, TrkC or p75. Cells were lysed with NP40, the HA-beads (beads conjugated to anti-HA antibody) were blocked with Hek lysate, and elution was done for 30 minutes at 37° C. […]

[2] = tested on: PC12 cells; test: Viability / death of PC12 cells after transfection with Karet constructs (Live/dead kit, FACS, cell counting, Hoechst); assay type: cell-based, rat
Experimental: FIG. 5a is a bar-graph of FACS data depicting 50 percent death of PC12 cells overexpressing Karet. Shown is a FACS analysis of PC12 viability 15 hours after transfection with Ha-Karet or control vector using Live/dead kit (Molecular probes), T-test=0.003.
FIG. 5b is a series of fluorescence photomicrographs depicting death of PC12 cells caused by Karet overexpression. Shown is a live/dead kit analysis of PC12 cells overexpressing Ha-Karet (left panels) versus control vector-transfected cells (right panels). Live cell are stained in green, dead cells are stained in red. Upper panels each show red fluorescence only (left picture) and green fluorescence only (right picture) pairs, and lower panels each show combined red and green fluorescence (left picture) and light microscopy images (right picture) pairs.
FIG. 5d is a pair of Hoechst stain histology photomicrographs depicting condensation of chromatin indicating apoptosis in PC12 cells expressing Karet, but not in control cells transfected with vector only.
FIG. 5e is a histogram depicting that Karet expression induces cell death of TrkA expressing cells, which is increased by NGF treatment and is decreased by necdin. PC12 or PC12 necdin stable cell line were electroporated with Karet or GFP control and incubated with or without 50 ng/ml NGF for 12 hours. Cells were counted and result presented as percent of control.
PC12 cells were transfected with Ha Karet, PTB, non PTB and their combinations. Cells were analyzed by FACS 18 hours after transfection using the dead/live kit. N=3; * p<0.05; **p<0.001;
The lower panel is a histogram depicting that Karet-mediated cell death correlates well with expression levels of the Karet protein. PC12 Tet-on cells were electroporated with Ha-Karet cloned under inducible promoter and incubated for 24 hours with different concentrations of doxycycline. Cells transfected with Karet but not treated with doxycycline served as control. Cells were counted and the results were determined as percent of control. The upper panel is a control Western blot depicting increased Karet expression with increased concentrations of doxycycline. Cells transfected with Karet and treated with doxycycline were lysed in NP-40 buffer and subjected to SDS-PAGE analysis. Similar amount of protein was loaded and blotted for Karet expression with Ha antibody. Proteins levels were checked with anti-tubulin antibody.
FIG. 18a—PC12 were transfected with Ha Karet, Karet F217V, PTB F217V or a control vector (pcDNA3) and 18 hours after transfection the effect of Karet or Karet mutants on cell death was determined using the dead/live kit and FACS analysis. Results are presented in percentages as compared to cells transfected with the control vector. N=3 **P<0.001. […] FIG. 18b—Cells were lysed 24 hours after transfection, fractionated on SDS-PAGE and immunoblot for anti Ha (Covance).
FIG. 19 is a histogram depicting FACS analysis of Karet-induced death. PC12 cells were co-transfected with Karet and the PTB, non-PTB or the F217V mutant at different ratios (1:1, 1:2, 1:3) and 18 hours after transfection the cells were analyzed by FACS using the dead/live kit.
Viability of cells was evaluated using the Live/dead viability/cytotoxicity kit (Cat. No. L-3224), Molecular Probes, Inc., Eugene, Oreg., USA, according to manufacturer's instructions.

[3] = tested on: human medulloblastoma cells (MED 283) stably transfected to express TrkA; conditions: cited from earlier work
[4] = tested on: PC12 cells; test: Effect of pathway proteins and inhibitors on Karet-induced cell death in PC12 cells; assay type: cell-based, rat
[5] = biological target: T1, TrkA (Rattus norvegicus, UniProt P35739); test: Co-immunoprecipitation of HA-Karet constructs with TrkA; assay type: binding; conditions: PC12 cells transfected with Karet; 50 ng/ml NGF, 10 minutes and 2 hours
T1 construct: expressed in transfected cells
Experimental: as §1, §2, §3, §4, §5, §6

T1 sequence (P35739 33-799): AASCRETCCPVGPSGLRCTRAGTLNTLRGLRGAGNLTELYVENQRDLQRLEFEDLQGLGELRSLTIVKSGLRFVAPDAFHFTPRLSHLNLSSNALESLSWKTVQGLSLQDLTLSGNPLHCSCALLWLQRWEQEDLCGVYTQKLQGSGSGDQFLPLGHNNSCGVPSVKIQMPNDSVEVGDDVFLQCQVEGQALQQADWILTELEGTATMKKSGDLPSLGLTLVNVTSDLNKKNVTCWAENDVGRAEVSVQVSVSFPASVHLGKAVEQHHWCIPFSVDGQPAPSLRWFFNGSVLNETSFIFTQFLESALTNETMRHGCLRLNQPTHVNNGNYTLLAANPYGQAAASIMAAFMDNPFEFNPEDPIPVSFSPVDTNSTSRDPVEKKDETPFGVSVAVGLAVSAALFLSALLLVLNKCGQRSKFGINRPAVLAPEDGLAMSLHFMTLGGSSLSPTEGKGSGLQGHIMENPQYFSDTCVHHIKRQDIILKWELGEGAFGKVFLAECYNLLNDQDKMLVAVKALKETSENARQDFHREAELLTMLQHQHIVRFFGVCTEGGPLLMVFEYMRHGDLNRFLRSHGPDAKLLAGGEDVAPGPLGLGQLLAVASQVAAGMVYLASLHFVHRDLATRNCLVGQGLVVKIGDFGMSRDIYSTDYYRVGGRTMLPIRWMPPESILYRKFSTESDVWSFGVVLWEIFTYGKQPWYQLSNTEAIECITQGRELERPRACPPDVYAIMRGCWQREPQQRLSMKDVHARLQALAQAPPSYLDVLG

Karet(228-453): C-terminal truncation mutant of mouse Karet, amino acid residues 228-453 (SEQ ID NO:8)
co-immunoprecipitation / interaction with TrkA [1]: does not | effect on Karet-induced death in competition assay ([2]; PC12 co-transfected with Karet at ratios 1:1, 1:2, 1:3, FACS 18 hours after transfection): reduced Karet-induced death

COC(=O)[C@@]1(O)C[C@H]2O[C@]1(C)n1c3ccccc3c3c4c(c5c6ccccc6n2c5c31)C(=O)NC4 [K252a, reference compound]
effect on NGF-induced apoptosis ([3]; TrkA-medulloblastoma cells): inhibited | effect on cell death effect of Karet ([4]; PC12 cells expressing Karet, 12 hours, different concentrations of K252A): diminished the cell death effect of Karet

NGF: nerve growth factor, neurotrophin ligand of TrkA
effect of NGF on TrkA-Karet interaction [5]: enhanced | cell death on NGF treatment ([3]; MED 283 cells expressing TrkA): significant levels of cell death | additional increase of death by NGF treatment ([2]; PC12 cells overexpressing Karet, 50 ng/ml NGF, 12 hours): 30%

C[S+]([O-])c1ccc(-c2nc(-c3ccncc3)c(-c3ccc(F)cc3)[nH]2)cc1 (centres unmarked) [SB203580, reference compound]
effect on cell death induction by Karet ([4]; PC12 electroporated with Karet, 10 micromolar SB203580): did not affect cell death induction
